This is an account of results in US20100120700A1, “METHODS AND COMPOSITIONS FOR TREATING CERVICAL CANCER” (priority 2000, published 2010).

For orientation: EC50 means the concentration that produces a half-maximal response.

Values joined by “and” are separate entries in the source; they are usually repeats but may differ in a detail not shown here. Equal entries are not always repeated.

Experiment [1] has as its system DLG-6 #333.1 domain 1. Briefly: G assay PDZ-PL binding. Set-up: species or system human. The note with it: peptide 10 uM, protein 5. The procedure:
(§1) (1) A PDZ-domain polypeptide is bound to a surface, e.g. a protein binding surface. In a preferred embodiment, a GST/PDZ fusion protein containing one or more PDZ domains is bound to a polystyrene 96-well plate. […] In one embodiment, the GST/PDZ fusion protein is bound via an anti-GST antibody that is coated onto the 96-well plate. Adequate binding to the plate can be achieved when: • a. 100 uL per well of 5 ug/mL goat anti-GST polyclonal antibody (Pierce) in PBS is added to a polystyrene 96-well plate (e.g., Num Polysorb) at 4° C. for 12 hours. • b. The plate is blocked by addition of 200 uL per well of PBS/BSA for 2 hours at 4° C. • c. The plate is washed 3 times with PBS. • d. 50 uL per well of 5 ug/mL GST/PDZ fusion protein) or, as a negative control, GST polypeptide alone (i.e. not a fusion protein) in PBS/BSA is added to the plate for 2 hours at 4° C. • e. The plate is again washed 3 times with PBS. […]
(§2) (3) The binding of the biotinylated peptide to the GST/PDZ fusion protein surface can be detected using a variety of methods and detectors known to one of skill in the art. In one embodiment, 100 uL per well of 0.5 ug/mL streptavidin-horse radish peroxidase (HRP) conjugate dissolved in BSA/PBS is added and allowed to react for 20 minutes at 4° C. The plate is then washed 5 times with 50 mM Tris pH 8.0 containing 0.2% Tween 20, and developed by addition of 100 uL per well of HRP-substrate solution (TMB, Dako) for 20 minutes at room temperature (RT). The reaction of the HRP and its substrate is terminated by addition of 100 uL per well of 1M sulfuric acid, and the absorbance of each well of the plate is read at 450 nm.
(§3) (4) Specific binding of a PL peptide and a PDZ domain polypeptide is determined by comparing the signal from the well(s) in which the PL peptide and PDZ domain polypeptide are combined, with the background signal(s). The background signal is the signal found in the negative control(s). Typically a specific or selective reaction will be at least twice background signal, more typically more than 5 times background, and most typically 10 or more times the background signal. In addition, a statistically significant reaction will involve multiple measurements of the reaction with the signal and the background differing by at least two standard errors, more typically four standard errors, and most typically six or more standard errors. Correspondingly, a statistical test (e.g. a T-test) comparing repeated measurements of the signal with-repeated measurements of the background will result in a p-value<0.05, more typically a p-value<0.01, and most typically a p-value<0.001 or less. As noted, in an embodiment of the “G” assay, the signal from binding of a given PL peptide to immobilized (surface bound) GST polypeptide alone is one suitable negative control (sometimes referred to as “B 1”). Because all measurement are done in multiples (i.e. at least duplicate) the arithmetic mean (or, equivalently, average.) of several measurements is used in determining the binding, and the standard error of the mean is used in determining the probable error in the measurement of the binding. The standard error of the mean of N measurements equals the square root of the following: the sum of the squares of the difference between each measurement and the mean, divided by the product of (N) and (N−1). Thus, in one embodiment, specific binding of the PDZ protein to the platebound peptide is determined by comparing the mean signal (“mean S”) and standard error of the signal (“SE”) for a particular PL-PDZ combination with the mean B1.
(§4) For convenience, the assay conditions described in this section are referred to as the “G’ assay” and the “G” assay,” with the specific conditions described in the preceding section on G assays being referred to as the “G° assay.” The “G′ assay” is identical to the “G° assay” except at step (2) the peptide concentration is 10 uM instead of 20 uM. […]

Experiment [2] concerns FLJ00011 domain 1. In words: G assay PDZ-PL binding. Also on record: species or system human. The conditions noted are these: peptide 10 uM, protein 5. The procedure:
as §1, §2, §3, §4

The subject of experiment [3] is NSP #268.2 domain 1. Briefly: G assay PDZ-PL binding. Also on record: species or system human. The conditions noted are these: peptide 10 uM, protein 5. As for the experimental part:
as §1, §2, §3, §4

Experiment [4] concerns the target DLG2 (PDZ3) (Homo sapiens, UniProt Q15700). The conditions noted are these: E6 peptide titrated against constant GST-PDZ; DLG2 (3). As for the experimental part:
(§5) (1) A GST/PDZ fusion protein, as well as GST alone as a negative control, are bound to a surface (e.g., a 96-well plate) and the surface blocked and washed as described supra for the “G” assay.
(§6) (2) 50 uL per well of a solution of biotinylated PL peptide (e.g. as shown in TABLE 2) is added to the surface in increasing concentrations in PBS/BSA (e.g. at 0.1 uM, 0.33 uM, 1 uM, 3.3 uM, 10 uM, 33 uM, and 100 uM). In one embodiment, the PL peptide is allowed to react with the bound GST/PDZ fusion protein (as well as the GST alone negative control) for 10 minutes at 4° C. followed by 20 minutes at 25° C. The plate is washed 3 times with ice cold PBS to remove unbound labeled peptide.
(§7) (3) The binding of the PL peptide to the immobilized PDZ-domain polypeptide is detected as described supra for the “G” assay.
(§8) (4) For each concentration of peptide, the net binding signal is determined by subtracting the binding of the peptide to GST alone from the binding of the peptide to the GST/PDZ fusion protein. The net binding signal is then plotted as a function of ligand concentration and the plot is fit (e.g. by using the Kaleidagraph software package curve fitting algorithm; Synergy Software) to the following equation, where “Signal[ligand]” is the net binding signal at PL peptide concentration “[ligand],” “Kd” is the apparent affinity of the binding event, and “Saturation Binding” is a constant determined by the curve fitting algorithm to optimize the fit to the experimental data: […]

In experiment [5] the target is DLG3 (PDZ1-2) (Homo sapiens, UniProt Q92796). The note with it: E6 peptide titrated against constant GST-PDZ; DLG3 (1-2). As for the experimental part: as §5, §6, §7, §8
Experiment [6] concerns the target PSD95 (PDZ1-3) (Homo sapiens, UniProt P78352). The conditions noted are these: E6 peptide titrated against constant GST-PDZ; PSD95 (1-3). The procedure: as §5, §6, §7, §8
In experiment [7] the target is PSD95 (PDZ2) (Homo sapiens, UniProt P78352). The note with it: E6 peptide titrated against constant GST-PDZ; PSD95 (2). As for the experimental part:
as §5, §6, §7, §8

The subject of experiment [8] is SAST1 KIAA. The note with it: E6 peptide titrated against constant GST-PDZ. As for the experimental part: as §5, §6, §7, §8
For experiment [9], the system named is VARTUL. The note with it: E6 peptide titrated against constant GST-PDZ. As for the experimental part:
as §5, §6, §7, §8

Chain of FLJ00011 domain 1 (as listed by the source): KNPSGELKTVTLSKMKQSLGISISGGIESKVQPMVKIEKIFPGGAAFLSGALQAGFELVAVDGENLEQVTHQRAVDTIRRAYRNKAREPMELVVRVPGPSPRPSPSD
Chain of DLG3 (PDZ1-2) (Q92796 129-315 limits assumed): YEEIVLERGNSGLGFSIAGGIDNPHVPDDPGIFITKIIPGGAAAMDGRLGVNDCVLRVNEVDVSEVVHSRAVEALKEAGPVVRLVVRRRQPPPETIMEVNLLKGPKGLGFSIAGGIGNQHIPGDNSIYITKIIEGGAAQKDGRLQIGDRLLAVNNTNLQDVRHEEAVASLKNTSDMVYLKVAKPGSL

On to “20 mer peptide corresponding to the C-terminus of HPV16 E6 (PDZ ligand), biotinylated in binding assays; ends SSRTRRETQL (SEQ ID NO: 13) [HPV E6 #16]”, for which the “Ave OD” value in [1] (A450 nm) was 0.3495; in [2] (A450 nm), 0.423 and 0.8185; in [3] (A450 nm), 0.724. The “OD S/N” value in [1] (vs GST only well) is 2.04; in [2] (vs GST only well), 2.90 and 3.97; in [3] (vs GST only well), 2.58. In addition, the concentration giving a half-maximal response (EC50) in experiment [4] was determined as 1.6 µM; in experiment [5] it was 3.8 µM; in [6] it was 1 µM; in experiment [7], 6.8 µM; in experiment [8], 0.58 µM; in [9], 0.94 µM.
